Test [1] concerns the target T1, Orai1/STIM1 (Homo sapiens, UniProt Q96D31).
T1 construct: expressed in transfected cells; host or cells: HEK-293
Put plainly: Fluorescence-based assay of store-operated calcium entry in Orai1/STIM1 stable cells. In kind it is cell-based. The note with it: Table iv, HEK-293 cells stably expressing human STIM1 and Orai1, 50% inhibition of Peak-Basal fluo-4 signal; for pIC50: read-out: Orai1/STIM1 (IC50, μmol). The protocol: A. Fluorescence-based Assay of Store-Operated Calcium Entry in Orai1/STIM1 Stable Cells.
Cells stably expressing recombinant human STIM1 and Orai1 are generated by transfecting a human Orai1 expression plasmid (pcDNA3.1-Orai1-cmyc) into HEK-293 cells stably overexpressing human STIM1 (Roos et al. 2005 JCB 169(3): 435-445). Colonies of cells stably expressing both STIM1 and Orai1 proteins are selected and then subcloned by limiting dilution. Cells were cultured at 37° C./6% CO2 in complete medium with 10% FBS and appropriate selection markers.
The day prior to performing the assay Orai1/STIM1 stable cells are plated in 50 μL of complete medium at 90-95% confluence in a 384 well plate. Cells are grown at 37° C./6% CO2 overnight. On the day of the assay, 1.5 μM fluo-4-AM (Invitrogen) in complete medium is added to the cells, which are then incubated for 1 hour at RT. Cells are washed once in Ca^2+-free HBSS (Hank's buffered saline solution) and 35 μl of Ca^2+-free HBSS is added to each well. Test compounds are added to wells in a 10 μL Ca^2+-free HBSS solution, prepared at 4.5× the desired final concentration, and incubated for 30 minutes at RT. The initial baseline fluorescence signal is then measured with a FLIPR^384 (Molecular Devices) plate reader. Calcium entry is initiated by adding 5 μl of 10× CaCl2 (10 mM) in HBSS, and changes in cellular fluorescence are measured with the FLIPR^384 plate reader. In each well, the magnitude of the fluorescence signal as a result of calcium entry into the cell is determined by calculating the difference between the peak fluorescence signal measured after calcium addition and the initial baseline fluorescence signal (designated Peak-Basal). IC50 values are typically calculated as the concentration that inhibited 50% of the Peak-Basal signal (Table A).

Test [2] deals with RBL-2H3 cells. Briefly: Fluorescence-based assay of store-operated calcium entry in RBL-2H3 cells. The test is classed as cell-based, rat. Further details: key to RBL-2H3 (IC50, μmol): A < 0.6 μmol; 0.6 μmol ≦ B ≦ 1.2 μmol; C > 1.2 μmol; — = no fit. Particulars: Table iv, thapsigargin store depletion, 50% inhibition of Upslope; for pIC50: Rattus norvegicus, RBL-2H3, read-out: RBL-2H3 (IC50, μmol). The protocol: B. Fluorescence-based Assay of Store-Operated Calcium Entry in RBL-2H3Cells.
RBL-2H3 cells are obtained from ATCC and maintained in complete medium with 10% FBS at 37° C./6% CO2.
The day prior to performing the assay, RBL-2H3 cells are plated in 50 μL of complete medium in a 384 well plate. Cells are grown at 37° C./6% CO2 overnight and grow to 50-60% confluence by the next day. On the assay day, 1.5 μM Fluo-4-AM dye (Invitrogen) in complete medium is added and incubated for 1 hour at RT. Cells are washed twice in Ca^2+-free HBSS buffer and 35 μL Ca^2+-free HBSS buffer is added to each well. 10 μL of a test compound prepared in a Ca^2+-free HBSS solution at 4.5× of the desired concentration is added to a well and incubated for 5 minutes at RT. 10 μL of thapsigargin prepared in a Ca^2+-free HBSS solution at 5.5× of the desired concentration (5.5 uM) is added to each well and incubated for an additional 25 minutes. The initial baseline fluorescence signal is measured with a FLIPR^384 (Molecular Devices) plate reader. 5 μL of 12× calcium in HBSS (12 mM) is added and changes in cellular fluorescence are measured with the FLIPR^384 plate reader. In each well, the change in the fluorescent signal as a function of time due to calcium entry into the cell is determined by calculating the difference between the fluorescent signal measured 7 seconds after calcium addition and the initial baseline fluorescence signal at time zero (t=0). This parameter is designated Upslope. The IC50 value is calculated as the concentration at which 50% of the Upslope is inhibited.

pIC50: −log10 of the molar value.

T1 sequence (Q96D31 whole entry): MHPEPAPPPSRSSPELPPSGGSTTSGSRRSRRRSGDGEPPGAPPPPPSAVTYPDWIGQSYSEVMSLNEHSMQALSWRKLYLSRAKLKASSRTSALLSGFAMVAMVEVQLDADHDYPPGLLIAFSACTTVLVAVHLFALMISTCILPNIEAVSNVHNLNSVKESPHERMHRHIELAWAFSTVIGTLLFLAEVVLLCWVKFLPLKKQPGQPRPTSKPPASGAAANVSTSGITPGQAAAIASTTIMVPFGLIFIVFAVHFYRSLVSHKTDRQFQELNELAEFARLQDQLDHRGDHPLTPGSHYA

Consider `Cn1nc(C(F)(F)F)cc1-c1ccc(NC(=O)c2c(F)cncc2F)cc1F`, for which the pIC50 in test [1] and in test [2] was over 6.22 each time.
In the case of `Cn1nc(C(F)(F)F)cc1-c1ccc(NC(=O)c2ccc(F)cc2F)cc1F`, the pIC50 in test [1] and in test [2] was over 6.22 each time.
As to `Cn1nc(C(F)(F)F)cc1-c1ccc(NC(=O)c2c(F)cc(F)cc2F)cc1F`, the pIC50 in test [1] and in test [2] was over 6.22 each time.
For the compound `Cn1nc(C(F)(F)F)cc1-c1ccc(NC(=O)c2ccncc2F)cc1F`, the pIC50 in test [1] and in test [2] was over 6.22 in each case.
Take `Cn1nc(C(F)(F)F)cc1-c1ccc(NC(=O)c2cncc(F)c2)cc1F`: the pIC50 in test [1] was over 6.22; in test [2], 5.92 to 6.22.
As for `Cc1cnccc1C(=O)Nc1ccc(-c2cc(C(F)(F)F)nn2C)c(F)c1`, the figures for the pIC50 in test [1] and in test [2] were 5.92 to 6.22 and over 6.22, respectively.
With `Cc1nnsc1C(=O)Nc1ccc(-c2cc(C(F)(F)F)nn2C)c(F)c1`, the pIC50 in test [1] and in test [2] was over 6.22 in each case.
Turning to `Cc1ncsc1C(=O)Nc1ccc(-c2cc(C(F)(F)F)nn2C)c(F)c1`, the pIC50 in test [1] and in test [2] was over 6.22 in each case.
As to `Cn1nc(C(F)(F)F)cc1-c1ccc(NC(=O)c2c(F)cccc2F)c(F)c1`, the pIC50 in test [1] and in test [2] was over 6.22 in each case.
As for `Cn1nc(C(F)(F)F)cc1-c1ccc(NC(=O)c2ccccc2F)c(F)c1`, in test [1], the “Orai1/STIM1 (IC50, μmol)” value is “Max inh. <50%”. Also, the “RBL-2H3 (IC50, μmol)” value in test [2] is recorded as “—”.
Take `Cn1nc(C(F)(F)F)cc1-c1ccc(NC(=O)c2c(F)cncc2F)c(F)c1`: the pIC50 in test [1] and in test [2] was over 6.22 throughout.
Turning to `Cn1nc(C(F)(F)F)cc1-c1c(F)cc(NC(=O)c2c(F)cccc2F)cc1F`, the pIC50 in test [1] is under 5.92; in test [2] it was over 6.22.
Take `Cn1nc(C(F)(F)F)cc1-c1c(F)cc(NC(=O)c2ccccc2F)cc1F`: the pIC50 in test [1] and in test [2] was over 6.22 each time.
Turning to `Cn1nc(C(F)(F)F)cc1-c1c(F)cc(NC(=O)c2ccc(F)cc2F)cc1F`, the pIC50 in test [1] and in test [2] was over 6.22 in each case.
Regarding `Cn1nc(C(F)(F)F)cc1-c1c(F)cc(NC(=O)c2c(F)cncc2F)cc1F`, the pIC50 in test [1] is 5.92 to 6.22; in test [2], over 6.22.
As for `Cc1cc(C(F)(F)F)nn1-c1ccc(NC(=O)c2c(F)cc(F)cc2F)cc1`, the pIC50 in test [1] was 5.92 to 6.22; in test [2], over 6.22.
For `Cc1nc(C(F)(F)F)cn1-c1ccc(NC(=O)c2ccccc2F)cc1F`, in that order: under 5.92 and over 6.22.
For `Cc1nc(C(F)(F)F)cn1-c1ccc(NC(=O)c2c(F)cccc2F)cc1F`, in that order: under 5.92 and 5.92 to 6.22.
In the case of `Cc1nc(C(F)(F)F)cn1-c1ccc(NC(=O)c2c(F)cc(F)cc2F)cc1F`, the values for the pIC50 in test [1] and in test [2] were under 5.92 and over 6.22, respectively.
For `Cc1nc(C(F)(F)F)cn1-c1ccc(NC(=O)c2c(F)cncc2F)cc1F`, in that order: under 5.92 and 5.92 to 6.22.
For `Cc1nc(C(F)(F)F)cn1-c1ccc(NC(=O)c2c(F)ccc(F)c2F)cc1F`, in that order: under 5.92 and over 6.22.
As for `Cc1nc(C(F)(F)F)cn1-c1ccc(NC(=O)c2ccccc2F)cc1`, the figures for the pIC50 in test [1] and in test [2] were 5.92 to 6.22 and over 6.22, respectively.
Consider `Cc1nc(C(F)(F)F)cn1-c1ccc(NC(=O)c2c(F)cccc2F)cc1`, for which the pIC50 in test [1] was under 5.92; in test [2] it was over 6.22.
In the case of `Cc1nc(C(F)(F)F)cn1-c1ccc(NC(=O)c2c(F)cc(F)cc2F)cc1`, the pIC50 in test [1] is under 5.92; in test [2] it was over 6.22.
Take `Cc1nc(C(F)(F)F)cn1-c1ccc(NC(=O)c2c(F)ccc(F)c2F)cc1`: the pIC50 in test [1] was under 5.92; in test [2], over 6.22.
As for `Cc1nn(C(F)F)cc1-c1ccc(NC(=O)c2ccccc2F)cc1`, the pIC50 in test [1] and in test [2] was 5.92 to 6.22 throughout.
Take `Cc1nn(C(F)F)cc1-c1ccc(NC(=O)c2c(F)cccc2F)cc1`: the pIC50 in test [1] and in test [2] was over 6.22 throughout.
Take `Cc1nn(C(F)F)cc1-c1ccc(NC(=O)c2c(F)cc(F)cc2F)cc1`: the pIC50 in test [1] and in test [2] was over 6.22 throughout.
For `Cc1cccc(F)c1C(=O)Nc1ccc(-c2cn(C(F)F)nc2C)cc1`, the pIC50 was 5.92 to 6.22 in test [1] and over 6.22 in test [2].
`Cc1nn(C(F)F)cc1-c1ccc(NC(=O)c2c(F)ccc(F)c2F)cc1`: the pIC50 in test [1] and in test [2] was over 6.22 each time.
On to `Cc1ccccc1C(=O)Nc1ccc(-c2cn(C(F)F)nc2C)c(F)c1`, for which the pIC50 in test [1] is over 6.22; in test [2] it was 5.92 to 6.22.
For `Cc1nn(C(F)F)cc1-c1ccc(NC(=O)c2ccccc2F)cc1F`, in that order: over 6.22 and 5.92 to 6.22.
On to `Cc1cccc(F)c1C(=O)Nc1ccc(-c2cn(C(F)F)nc2C)c(F)c1`, for which the pIC50 in test [1] and in test [2] was over 6.22 throughout.
In the case of `Cc1nn(C(F)F)cc1-c1ccc(NC(=O)c2c(F)cccc2F)cc1F`, the pIC50 in test [1] and in test [2] was over 6.22 each time.
For `Cc1nn(C(F)F)cc1-c1ccc(NC(=O)c2c(F)cc(F)cc2F)cc1F`, the pIC50 in test [1] and in test [2] was over 6.22 throughout.
Take `CCn1nc(C(F)(F)F)cc1-c1ccc(NC(=O)c2ccccc2F)cc1`: the pIC50 in test [1] and in test [2] was over 6.22 throughout.
In the case of `CCn1nc(C(F)(F)F)cc1-c1ccc(NC(=O)c2c(F)cccc2F)cc1`, the pIC50 in test [1] and in test [2] was over 6.22 in each case.
As to `CCn1nc(C(F)(F)F)cc1-c1ccc(NC(=O)c2ccccc2F)cc1F`, the pIC50 in test [1] and in test [2] was over 6.22 in each case.
Take `CCn1nc(C(F)(F)F)cc1-c1ccc(NC(=O)c2c(F)cccc2F)cc1F`: the pIC50 in test [1] and in test [2] was over 6.22 in each case.
As to `Cc1ccccc1C(=O)Nc1ccc(-c2nc(C(F)(F)F)sc2C)cc1`, the pIC50 in test [1] and in test [2] was over 6.22 in each case.
For `Cc1sc(C(F)(F)F)nc1-c1ccc(NC(=O)c2ccccc2F)cc1`, the pIC50 in test [1] and in test [2] was over 6.22 throughout.
Regarding `Cc1cccc(F)c1C(=O)Nc1ccc(-c2nc(C(F)(F)F)sc2C)cc1`, the pIC50 in test [1] and in test [2] was over 6.22 in each case.
As for `Cc1sc(C(F)(F)F)nc1-c1ccc(NC(=O)c2c(F)cccc2F)cc1`, the pIC50 in test [1] and in test [2] was over 6.22 throughout.
Turning to `Cc1sc(C(F)(F)F)nc1-c1ccc(NC(=O)c2c(F)cc(F)cc2F)cc1`, the pIC50 in test [1] and in test [2] was over 6.22 each time.
Take `Cc1cc(F)ccc1C(=O)Nc1ccc(-c2cc(C(F)(F)F)nn2C)c(F)c1`: the pIC50 in test [1] and in test [2] was over 6.22 each time.
On to `Cc1cc(F)ccc1C(=O)Nc1ccc(-n2nc(C(F)(F)F)cc2C)c(F)c1`, for which the values for the pIC50 in test [1] and in test [2] were 5.92 to 6.22 and over 6.22, respectively.
Consider `Cc1cc(F)ccc1C(=O)Nc1ccc(-n2cc(C(F)(F)F)nc2C)c(F)c1`, for which the pIC50 in test [1] is under 5.92; in test [2], over 6.22.
Regarding `Cc1cc(F)ccc1C(=O)Nc1ccc(-c2cc(C(F)F)nn2C)c(F)c1`, the pIC50 in test [1] and in test [2] was over 6.22 each time.
Regarding `CCn1nc(C(F)(F)F)cc1-c1ccc(NC(=O)c2c(F)cc(F)cc2F)cc1F`, the pIC50 in test [1] was 5.92 to 6.22; in test [2], over 6.22.

The values above are taken from patent US20140256771A1, “COMPOUNDS THAT MODULATE INTRACELLULAR CALCIUM” (CalciMedica, Inc., priority 2011, published 2014).
